Patent publication US5763450A, “Substituted benzyl pyrimidines” (Hoffmann-La Roche Inc., priority 1994, dated 1998)
Counter-ions that a name gives are not always drawn.

What was measured:
[1] = test system: purified DHFR of the multi-resistant strain S. aureus 157/4696; assay: Inhibition of purified DHFR of multi-resistant strain S. aureus 157/4696; format: biochemical; settings: determined graphically
Method: The inhibition of the enzyme was taken as a measurement for the antibacterial activity. It is determined using the method of Baccanari and Joyner (Biochemistry 20, 1710 (1981)); see also P. G. Hartman et al., FEB 242, 157-160 (1988).
The IC50 values (concentration at which the enzyme is inhibited to 50%) are determined graphically.
The following Table contains inhibitory concentrations determined in the above test for representative members of the class of compound defined by formula I. The C50 values (μM) are given against the purified DHFR of the reference strain S. aureus ATCC 35923 as well as against the purified DHFR of the multi-resistant strain S. aureus 157/4696. […] The inhibition constants of trimethoprim are also given as a comparison.

[2] = target: purified DHFR of the reference strain S. aureus ATCC 25923 (Staphylococcus aureus, UniProt P0A017); assay: Inhibition of purified DHFR of reference strain S. aureus ATCC 25923; format: biochemical
purified DHFR of the reference strain S. aureus ATCC 25923, sequence (P0A017 whole entry): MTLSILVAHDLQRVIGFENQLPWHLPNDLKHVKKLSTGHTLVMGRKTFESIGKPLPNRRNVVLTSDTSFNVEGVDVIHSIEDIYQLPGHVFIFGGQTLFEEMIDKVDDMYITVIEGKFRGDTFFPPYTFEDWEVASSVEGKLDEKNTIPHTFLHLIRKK

[3] = target: T1, purified DHFR of the opportunistic pathogen P. carinii (Pneumocystis carinii, UniProt P16184); assay: biochemical; settings: determined graphically
T1 sequence (P16184 1-206): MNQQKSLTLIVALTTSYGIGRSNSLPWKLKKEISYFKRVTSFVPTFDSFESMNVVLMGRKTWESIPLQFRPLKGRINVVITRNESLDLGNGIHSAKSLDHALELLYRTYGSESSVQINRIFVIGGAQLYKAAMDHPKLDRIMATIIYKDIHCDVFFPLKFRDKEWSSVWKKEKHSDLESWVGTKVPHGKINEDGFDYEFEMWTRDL

**Q.** Which IC50 [1] does the source give for `COc1cc(Cc2cnc(N)nc2N)cc(-c2cc3c(cc2F)c(=O)c(C(=O)O)cn3C2CC2)c1OC` [Example 9a, 1-cyclopropyl-7-[5-(2,4-diaminopyrimidin-5-ylmethyl)-2,3-dimethoxy-phenyl]-6-fluoro-1,4-dihydro-4-oxo-quinoline-3-carboxylic acid trifluoroacetate] here?
**A.** 50 nM

**Q.** What about the IC50 [2] of the same molecule?
**A.** 0.9 nM

**Q.** And the IC50 [3]?
**A.** 19 nM

**Q.** With `Nc1ncc(Cc2cccc(-c3cc4c(cc3F)c(=O)c(C(=O)O)cn4C3CC3)c2)c(N)n1` [Example 9c, 1-cyclopropyl-7-[5-(2,4-diamino-pyrimidin-5-ylmethyl)-phenyl]-6-fluoro-1,4-dihydro-4-oxo-quinoline-3-carboxylic acid] as the molecule, how does the IC50 [1] read?
**A.** 210 nM

**Q.** And the IC50 [2]?
**A.** 1.9 nM

**Q.** And the IC50 [3]?
**A.** 200 nM

**Q.** `COc1cc(Cc2cnc(N)nc2N)cc(C#Cc2ccc3c(=O)c(C(=O)O)cn(Cc4ccccc4)c3c2)c1OC` [Example 16p, hydrochloride] was tested. Which IC50 [1] did it give?
**A.** 1.3 nM

**Q.** What about the IC50 [2] of the same molecule?
**A.** 1.2 nM

**Q.** And the IC50 [3]?
**A.** 140 nM

**Q.** For `COc1cc(Cc2cnc(N)nc2N)cc(-c2ccc3ccccc3c2)c1OC` [Example 4h, 5-(3,4-dimethoxy-5-naphthalen-2-yl-benzyl)pyrimidine-2,4-diamine], which IC50 [1] is on record?
**A.** 1300 nM

**Q.** And the IC50 [2]?
**A.** 2.2 nM

**Q.** And the IC50 [3]?
**A.** 1600 nM

**Q.** Which IC50 [1] does the source give for `COc1cc(Cc2cnc(N)nc2N)cc(C#Cc2ccc3c(=O)c(C(=O)O)cn(C(C)(C)C)c3c2)c1OC` [Example 16ac, 1-tert-butyl-7-[5-(2,4-diamino-pyrimidin-5-ylmethyl)-2,3-dimethoxy-phenylethynyl]-4-oxo-1,4-dihydro-quinoline-3-carboxylate hydrochloride] here?
**A.** 1.6 nM

**Q.** What about the IC50 [2] of the same molecule?
**A.** 0.9 nM

**Q.** What about the IC50 [3] of the same molecule?
**A.** 190 nM

**Q.** For `COc1cc(Cc2cnc(N)nc2N)cc(C=Cc2ccc3ccccc3c2)c1OC` [Example 10b, 5-[3,4-dimethoxy-5-(2-naphthalen-2-yl-vinyl)-benzyl]-pyrimidine-2,4-diamine], which IC50 [1] is on record?
**A.** 750 nM

**Q.** And the IC50 [2]?
**A.** 20 nM

**Q.** And the IC50 [3]?
**A.** 4000 nM

**Q.** Which results are given for `COc1cc(Cc2cnc(N)nc2N)cc(C#Cc2c(F)cc3c(=O)c(C(=O)O)cn(C4CC4)c3c2F)c1OC` [Example 16c, 1-cyclopropyl-7-[5-(2,4-diamino-pyrimidin-5ylmethyl)-2,3-dimethoxy-phenylethynyl]-6,8-difluoro-1,4-dihydro-4-oxo-quinoline-3-carboxylic acid hydrochloride]?
**A.** IC50 [1]: 2.4 nM; IC50 [2]: 1.2 nM; IC50 [3]: 36 nM

**Q.** How did the IC50 [1] turn out when `COc1cc(Cc2cnc(N)nc2N)cc(C#Cc2ccc3cc(C(=O)O)ccc3c2)c1OC` [Example 16j, 6-[5-(2,4-diamino-pyrimidin-5-ylmethyl)-2,3-dimethoxy-phenylethynyl]-naphthalene-2-carboxylic acid hydrochloride] was run?
**A.** 24 nM

**Q.** And the IC50 [2]?
**A.** 0.9 nM

**Q.** What about the IC50 [3] of the same molecule?
**A.** 5000 nM

**Q.** What does the source list for `COc1ccc(Cc2cnc(N)nc2N)cc1-c1cc2c(cc1F)c(=O)c(C(=O)O)cn2C1CC1` [Example 9b, 1-cyclopropyl-7-[5-(2,4-diamino-pyrimidin-5-ylmethyl)-2-methoxy-phenyl]-6-fluoro-1,4-dihydro-4-oxo-quinoline-3-carboxylic acid trifluoroacetate]?
**A.** IC50 [1]: 110 nM; IC50 [2]: 0.2 nM; IC50 [3]: 38 nM

**Q.** For `COc1cc(Cc2cnc(N)nc2N)cc(C#Cc2ccc3ccccc3c2)c1OC` [Example 15a, 5-[3,4-dimethoxy-5-(naphthalen-2-ylethynyl)-benzyl]-pyrimidine-2,4-diamine], which IC50 [1] is on record?
**A.** 700 nM

**Q.** And the IC50 [2]?
**A.** 15 nM

**Q.** And the IC50 [3]?
**A.** 8000 nM

**Q.** How did the IC50 [1] turn out when `CCn1cc(C(=O)O)c(=O)c2cc(F)c(C#Cc3cc(Cc4cnc(N)nc4N)cc(OC)c3OC)cc21` [Example 16f, 1-ethyl-7-[5-(2,4-diamino-pyrimidin-5-ylmethyl)-2,3-dimethoxy-phenylethynyl]-6-fluoro-4-oxo-1,4-dihydro-quinoline-3-carboxylic acid hydrochloride] was run?
**A.** 6.5 nM

**Q.** What about the IC50 [2] of the same molecule?
**A.** 1.5 nM

**Q.** What about the IC50 [3] of the same molecule?
**A.** 280 nM

**Q.** With `CCOC(=O)c1cn(CC)c2cc(C#Cc3cc(Cc4cnc(N)nc4N)cc(OC)c3OC)ccc2c1=O` [Example 12g, ethyl 1-ethyl-7-[5-(2,4-diamino-pyrimidin-5-ylmethyl)-2,3-dimethoxy-phenylethynyl]-4-oxo-1,4-dihydro-quinoline-3-carboxylate] as the molecule, how does the IC50 [1] read?
**A.** 130 nM

**Q.** What about the IC50 [2] of the same molecule?
**A.** 5 nM

**Q.** What about the IC50 [3] of the same molecule?
**A.** 900 nM

**Q.** Which results are given for `COc1cc(Cc2cnc(N)nc2N)cc(C#Cc2cc3c(cc2F)c(=O)c(C(=O)O)cn3C2CC2)c1OC` [Example 16e, 1-cyclopropyl-7-[5-(2,4-diamino-pyrimidin-5-ylmethyl)-2,3-dimethoxy-phenylethynyl]-6-fluoro-4-oxo-1,4-dihydro-quinoline-3-carboxylic acid trifluoroacetate]?
**A.** IC50 [1]: 80 nM; IC50 [2]: 2.9 nM; IC50 [3]: 3400 nM

**Q.** What does the source list for `COc1cc(Cc2cnc(N)nc2N)cc(-c2ccc(C(=O)O)cc2)c1OC` [Example 5c, 5-(4'-carboxyl-5,6-dimethoxy-biphenyl-3-ylmethyl)-pyrimidine-2,4-diamine hydrochloride]?
**A.** IC50 [1]: 420 nM; IC50 [2]: 0.9 nM; IC50 [3]: 480 nM

**Q.** What does the source list for `COc1cc(Cc2cnc(N)nc2N)cc(-c2cccc(O)c2)c1OC` [Example 5b, 5-(3'-hydroxy-5,6-dimethoxy-biphenyl-3-ylmethyl)-pyrimidine-2,4-diamine]?
**A.** IC50 [1]: 2200 nM; IC50 [2]: 4 nM; IC50 [3]: 2300 nM

**Q.** Which results are given for `COc1cc(Cc2cnc(N)nc2N)cc(-c2ccc3cc(O)ccc3c2)c1OC` [Example 5h, 5-(3,4-dimethoxy-5-naphthalen-6-hydroxy-2-yl-benzyl)-pyrimidine-2,4-diamine]?
**A.** IC50 [1]: 500 nM; IC50 [2]: 1.3 nM; IC50 [3]: 1000 nM
